This is an account of results in patent publication US5466718A, “Tyrosinase inhibitors” (Takasago Institute for Interdisciplinary, priority 1993, dated 1995).

In brackets after ≈: the same amount, converted by molar mass. Counter-ions that a name gives are not always drawn.

What is called IC50 is the midpoint of a concentration-inhibition curve. Read a low IC50 as greater potency in that assay. What is called inhibition is how much of the control response was suppressed. The low end stands for little suppression, the high end for strong suppression.

One assay addresses mushroom tyrosinase. The assay can be described thus: Tyrosinase inhibition (mushroom tyrosinase, L-DOPA, dopachrome absorbance at 475 nm). The format is biochemical. The conditions noted are these: pH 6.8, 22° C., L-DOPA substrate; concentration with 40 to 60% inhibition in a minimum of two trials taken as IC50. The protocol: Inhibition tests were carried out using aqueous solvents. Saturated stock solutions were prepared by at least 48 hours before the tests were run, which were diluted appropriately upon use in order to increase the solubilities in the aqueous solvents of the lipophilic test compounds.
Tests were carried out according to conventional procedure as follows. That is, 0.01 to 0.02 ml of a mushroom tyrosinase solution (1,375 U/ml, Sigma Chemical Co.), 0.98 to 0.99 ml of a 0.07M phosphate buffer solution (pH 6.8) and 1 ml of a test solution with or without a test compound listed in Table 2 were mixed, and the resulting mixture was incubated at 22° C. for 8 minutes. Then, 1 ml of a 0.03% aqueous solution of I-DOPA (L-3,4-dihydroxyphenylalanine having a purity of 99%, Sigma Chemical Co.) was added thereto. After incubation at 22° C. for 2 minutes, the amount of dopachrome in the reaction mixture was measured as absorbance (optical density) at 475 nm. The change in absorbance with or without different test samples was monitored every 30 seconds for the following 2.5 minutes using a Beckman DU-64 spectrophotometer (Beckman, Palo Alto, Calif.).
Each test compound was repeatedly tested until the 50% inhibitory concentration (IC50) (μg/ml) was determined.
The percent inhibition was calculated according to the following equation: [formula] where A=Absorbance
^A final=Final absorbance
^A initial=Initial absorbance

In a further assay the test system is tyrosinase. The assay can be described thus: Tyrosinase inhibition (long exposure), melanin formation from L-tyrosine. The format is biochemical. The conditions noted are these: test solution 200 μg/ml, pH 6.8, 37° C., L-tyrosine substrate. The method, then: Tyrosinase inhibitory effects of the active compounds of this invention on long exposure were determined using […]. The method of Chen et al. (J. Agric. Food Chem., 39, 8, 1991) was adapted and scaled down for spectrophotometric analysis on a Bio Rad Model 3550 Microplate Reader (Bio-Rad, Richmond, Calif.), which uses 96-well plates. 20 μl of tyrosinase solution containing 0.02 mg/ml of tyrosinase (Sigma Chemical Company) and 76 μl of a test solution of citronellol, geraniol, or farnesol, adjusted to 200 μg/ml with a phosphate buffer solution (pH 6.8) were added to each well. After incubation at 37° C. for 8 minutes, 1 mM L-tyrosine (Sigma Chemical Company) was added as a substrate. Absorbance at 490 nm was measured every 60 seconds for up to 120 minutes to determine how much the amount of melanin produced from tyrosine substrate decreased as a result of the tyrosinase inhibition.

The test system of assay [1] is Mouse melanoma cell line (ATCC CRL 6322). The assay can be described thus: Melanin formation inhibition in melanoma cells. The assay is classed as cell-based. The conditions noted are these: for inhibition at 250 µM: 0.25 mM; for inhibition at 500 µM: 0.5 mM. The protocol:
Inhibitory effects on the melanin formation in melanoma cells were tested by the following procedure. Results obtained are shown in Table 5, together with the results obtained with arbutin as a control.
Mouse melanoma cell line (ATCC CRL 6322) was maintained in MEM medium (GIBCO BR, Gaitherburg, Md.) supplemented with 10% heat-inactivated fetal bovine serum described by Maeda (J. Cosmet. Chem., 42, 361 (1991)). More specifically, the cells were cultured on 6-well tissue culture plates (Falcon 3046) with various concentrations of each test compound listed in Table 5 below at 37° C., and at a humidity of 98%, in 5% carbon dioxide atmosphere for 4 days. Cell viability in all tests was determined by Trypan Blue exclusion. The culture media were aspirated, and 1.0 ml of an aqueous 0.25% trypsin solution and an aqueous 0.2% ethylenediaminetetraacetic acid (EDTA) solution were added to each well. Detached cells were placed in an Eppendorf tube, and centrifuged at 1,000 rpm for 5 minutes. The cell pellets thus obtained were mixed with 5% trichloroacetic acid, agitated well, and centrifuged 10,000 rpm to deposit melanin. The melanin pellets were mixed with 1N NaOH for dissolution, and the absorbance at 475 nm was measured, from which melanin formation inhibition (%) was calculated.

The mark [2] stands for this setting: Mus musculus, 96 h, 4 days, 37° C.

Take `CC(C)=CCCC(C)CC#N` (centres unmarked) [Citronellyinitrile, citronellylnitrile]: the IC50 at mushroom tyrosinase came out at 9.4 µg/mL (≈ 62.1 µM).

On mushroom tyrosinase, `CC(=O)OCCC(C)CCC=C(C)C` (centres unmarked) [Citronellyl acetate] came in with a half-maximal inhibitory concentration (IC50) of 18.8 µg/mL.

`CC(C)=CCCC(C)CCO` (centres unmarked) [Citronellol]: the “Inhibition Ratio (%) on Melanin Formation” value (“Inhibition Ratio (%)” below) in the assay on tyrosinase (0 minute) came to 0%; with tyrosinase (30 minute), 39.6%; in the assay on tyrosinase (120 minute), 43.8%. Besides, the inhibition at 250 µM in assay [1] (setting [2]) was determined as 25%. This compound gave an inhibition at 500 µM in assay [1] (setting [2]) of 25%. Further, at mushroom tyrosinase, the half-maximal inhibitory concentration (IC50) amounted to 6.3 µg/mL (≈ 40.3 µM).

With `CCCCCCCCCCO` [Decanol], on mushroom tyrosinase, the 50% inhibitory concentration (IC50) is 12.5 µg/mL (≈ 79 µM).

As for `C=CC(C)(O)CCC=C(C)CCC=C(C)C` (centres unmarked) [Nerolidol], the IC50 at mushroom tyrosinase turned out to be 12.5 µg/mL (≈ 56.2 µM).

As to `CC(C)=CCCC(C)=CCCC(C)=CCOC(=O)C(C)C` [Farnesyl isobutyrate], the 50% inhibitory concentration (IC50) against mushroom tyrosinase was 12.5 µg/mL (≈ 42.7 µM).

In assay [1] (Mus musculus, 96 h, 0.125 mM, 4 days, 37° C.), `OC[C@H]1O[C@@H](Oc2ccc(O)cc2)[C@H](O)[C@@H](O)[C@@H]1O` [Arbutin, reference compound] came in with an inhibition at 125 µM of 58%. In assay [1] (setting [2]), this compound had an inhibition at 250 µM of 53%. For the same compound, the “melanin formation inhibition in melanoma cells” value in assay [1] (summary of Table 5, aqueous system) is recorded as “exhibited higher inhibitory effects than the active compounds of the present invention”. On mushroom tyrosinase, the IC50 came to 63 µg/mL (≈ 231 µM).

For the compound `CC(C)=CCC/C(C)=C/CO` [Geraniol], the “Inhibition Ratio (%)” value in the assay on tyrosinase (0 minute) amounted to 0%; in the assay with tyrosinase (30 minute) it was 37.3%; in the assay with tyrosinase (120 minute), 48.5%. In assay [1] (setting [2]), this compound yielded an inhibition at 250 µM of 30%. The same compound showed an inhibition at 500 µM in assay [1] (setting [2]) of 18%. The IC50 on mushroom tyrosinase came out at 6.3 µg/mL (≈ 40.8 µM).

The compound `CC(C)=CCCC(C)=CCCC(C)=CCOC(=O)Cc1ccccc1` [Farnesyl phenylacetate] came in with an IC50 against mushroom tyrosinase of 12.5 µg/mL (≈ 36.7 µM).

As for `CC(C)=CCCC(C)=CCCC(C)=CCO` [Farnesol], the “Inhibition Ratio (%)” value with tyrosinase (0 minute) came out at 0%; in the assay on tyrosinase (30 minute), 23.6%; in the assay with tyrosinase (120 minute), 31.9%. Further, the concentration for half-maximal inhibition (IC50) against mushroom tyrosinase was 12.5 µg/mL (≈ 56.2 µM).

`CCCCCCCCO` [Octanol] registered a 50% inhibitory concentration (IC50) against mushroom tyrosinase of 12.5 µg/mL (≈ 96 µM).

Regarding `CC(C)=CCC/C(C)=C/COC(=O)C(C)C` [Geranyl isobutyrate], the half-maximal inhibitory concentration (IC50) against mushroom tyrosinase was found to be 12.5 µg/mL (≈ 55.7 µM).

As for `CC(C)=CCCC(C)=CCCC(C)=CCOC(=O)c1ccccc1` [Farnesyl benzoate], the IC50 at mushroom tyrosinase was 25.0 µg/mL (≈ 76.6 µM). This IC50 is about 2-fold higher than that of the compound before.

`CCCC(=O)OCCC(C)CCC=C(C)C` (centres unmarked) [Citronellyl butyrate] registered a half-inhibitory concentration (IC50) against mushroom tyrosinase of 37.5 µg/mL (≈ 166 µM). This IC50 is about 1.5-fold higher than that of the compound before.

Take `CC(C)=CCCC(C)CCOC(=O)c1ccccc1` (centres unmarked) [Citronellyl benzoate]: the IC50 on mushroom tyrosinase stood at 6.3 µg/mL (≈ 24.2 µM). This IC50 lies about 6-fold lower than the previous one.

Regarding `CC(C)=CCCC(C)CCOC(=O)C(C)C` (centres unmarked) [Citronellyl isobutyrate], in assay [1] (setting [2]), at 250 µM the inhibition was 31% and the inhibition at 500 µM is 56%. Further, the 50% inhibitory concentration (IC50) against mushroom tyrosinase stood at 6.3 µg/mL (≈ 27.8 µM).

In the case of `CC(C)=CCCC(C)CC=O` (centres unmarked) [Citronellal], the IC50 at mushroom tyrosinase was 9.4 µg/mL (≈ 60.9 µM).

Consider `C=CC(C)CCCC(C)(C)O` (centres unmarked) [Dihydromyrcenol], for which the IC50 at mushroom tyrosinase came out at 12.5 µg/mL (≈ 80 µM). The IC50 values of the last two compounds are within 1.5-fold of each other.

At mushroom tyrosinase, `CC(C)=CCCC(C)CCOC=O` (centres unmarked) [Citronellyl formate] showed a half-maximal inhibitory concentration (IC50) of 6.3 µg/mL.

On mushroom tyrosinase, `CCC(=O)OCCC(C)CCC=C(C)C` (centres unmarked) [Citronellyl propionate] registered an IC50 of 12.5 µg/mL (≈ 58.9 µM).
